In ChEMBL document CHEMBL1201862, “PubChem BioAssay data set” (2004):
One block for each compound: values may come before it. Active and inactive are the calls of the source.

Assays:
[1] = molecular target: T1, Apoptotic protease-activating factor 1 (Homo sapiens, UniProt O14727); test: SAR analysis of small molecule Activators of Apaf-1 in a Fluorescent assay.; format: functional; details: read-out: EC50_Mean
T1 sequence (O14727 whole entry): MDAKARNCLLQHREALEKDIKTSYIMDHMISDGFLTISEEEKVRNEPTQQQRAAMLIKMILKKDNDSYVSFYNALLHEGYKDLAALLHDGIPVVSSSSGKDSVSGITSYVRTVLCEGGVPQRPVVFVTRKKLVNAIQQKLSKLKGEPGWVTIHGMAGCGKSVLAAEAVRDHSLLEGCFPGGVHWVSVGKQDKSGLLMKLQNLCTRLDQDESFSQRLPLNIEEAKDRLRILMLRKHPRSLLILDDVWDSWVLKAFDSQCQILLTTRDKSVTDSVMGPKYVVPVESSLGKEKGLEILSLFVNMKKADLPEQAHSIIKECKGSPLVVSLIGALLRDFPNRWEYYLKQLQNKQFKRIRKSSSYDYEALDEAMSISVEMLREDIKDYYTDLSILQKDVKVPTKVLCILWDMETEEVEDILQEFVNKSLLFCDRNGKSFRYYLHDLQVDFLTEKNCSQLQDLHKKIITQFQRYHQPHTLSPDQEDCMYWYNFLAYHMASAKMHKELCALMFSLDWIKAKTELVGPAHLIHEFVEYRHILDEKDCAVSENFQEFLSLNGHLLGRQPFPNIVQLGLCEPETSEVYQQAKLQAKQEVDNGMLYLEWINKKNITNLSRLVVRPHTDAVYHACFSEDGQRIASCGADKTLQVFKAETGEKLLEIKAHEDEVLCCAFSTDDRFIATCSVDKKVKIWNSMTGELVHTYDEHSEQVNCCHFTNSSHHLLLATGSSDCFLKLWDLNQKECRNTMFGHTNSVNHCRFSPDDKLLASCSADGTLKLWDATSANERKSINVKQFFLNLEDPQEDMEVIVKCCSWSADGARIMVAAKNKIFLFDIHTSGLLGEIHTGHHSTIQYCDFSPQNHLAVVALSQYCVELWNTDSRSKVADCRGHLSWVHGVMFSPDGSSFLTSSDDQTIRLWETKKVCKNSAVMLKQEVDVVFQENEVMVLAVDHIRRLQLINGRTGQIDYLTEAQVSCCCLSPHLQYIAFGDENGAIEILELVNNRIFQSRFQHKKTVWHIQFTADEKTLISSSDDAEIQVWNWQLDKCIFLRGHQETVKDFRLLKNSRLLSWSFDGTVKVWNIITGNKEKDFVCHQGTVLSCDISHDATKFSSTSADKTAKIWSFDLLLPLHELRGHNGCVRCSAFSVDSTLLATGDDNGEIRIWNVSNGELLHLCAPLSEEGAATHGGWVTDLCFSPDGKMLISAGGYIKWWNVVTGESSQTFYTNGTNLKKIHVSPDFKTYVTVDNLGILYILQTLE

[2] = system: H9c2; test: cells; format: functional, cell-based; details: Rattus norvegicus, H9c2, Myocardium;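 note: confirmatory concentration-response retest of ultra-high-throughput screening hits for modulation of myocardial damage; cell death induced by hydrogen peroxide oxidative stress; compound pretreatment for 60 min then peroxide exposure for 2 h; potency is for protecting the cells against peroxide damage rather than for killing them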
[3] = molecular target: T2, Interleukin-8 (Homo sapiens, UniProt P10145); test: Dose Response confirmation of uHTS small molecule hits for cystic fibrosis induced NFkb Inhibitors in a PAF-induced IL8 counterscreen.; format: functional; details: read-out: IC50_Mean
T2 sequence (P10145 whole entry): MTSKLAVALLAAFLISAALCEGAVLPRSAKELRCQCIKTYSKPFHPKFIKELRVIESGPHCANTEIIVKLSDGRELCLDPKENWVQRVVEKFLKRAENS

[4] = viability of PTEN-deleted HCT116 cells – cell-based, HCT116 PTEN knockout, dose response (AID 1047); format: functional;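 note: HCT116 colon tumor cells with PTEN knocked out; cells exposed to compound for 60 hours before readout; potency for loss of cell viability measured by luminescence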
[5] = molecular target: Hepatocyte nuclear factor 4-alpha (Homo sapiens, UniProt P41235); format: functional, cell-based;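 note: biochemical luminescence-based dose-response counterscreen measuring inhibition of HNF4 dimerization, run alongside a screen for blockers of ABHD5–perilipin-5 interaction; split luciferase complementation of HNF4 fusion proteins in cell lysate measuring dimerization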
[6] = viability of HCT116 lacking mutant beta-catenin – cell-based, human colon tumor, dose response (AID 1045); format: functional;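 note: HCT116 colon tumor cells with beta catenin knocked out; cells exposed to compound for 60 hours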
[7] = molecular target: T3, Small ubiquitin-related modifier 1 (Homo sapiens, UniProt P63165); test: SUMO1 protein interaction blockers, potency – biochemical, fluorescence polarization, uHTS hits, dose response (AID 624382); format: functional; details: read-out: IC50_Mean
[8] = molecular target: T3, Small ubiquitin-related modifier 1; test: SUMO1 protein-protein binding blockers, potency – biochemical, FRET, dose response (AID 624383); format: functional; details: read-out: IC50_Mean
[9] = system: HEK293; test: EBV LMP1 TES2 canonical NF-kB signalling blockers – cell-based, HEK293, luciferase, cherry-pick, dose response (AID 588343); format: functional; details: Homo sapiens
[10] = molecular target: T4, DNA repair and recombination protein RAD54-like (Homo sapiens, UniProt Q92698); test: RAD54 Holliday junction migration blockers – biochemical, fluorescence, cherry-picked samples, dose series, confirmation (AID 651657); format: functional
T4 sequence (Q92698 whole entry): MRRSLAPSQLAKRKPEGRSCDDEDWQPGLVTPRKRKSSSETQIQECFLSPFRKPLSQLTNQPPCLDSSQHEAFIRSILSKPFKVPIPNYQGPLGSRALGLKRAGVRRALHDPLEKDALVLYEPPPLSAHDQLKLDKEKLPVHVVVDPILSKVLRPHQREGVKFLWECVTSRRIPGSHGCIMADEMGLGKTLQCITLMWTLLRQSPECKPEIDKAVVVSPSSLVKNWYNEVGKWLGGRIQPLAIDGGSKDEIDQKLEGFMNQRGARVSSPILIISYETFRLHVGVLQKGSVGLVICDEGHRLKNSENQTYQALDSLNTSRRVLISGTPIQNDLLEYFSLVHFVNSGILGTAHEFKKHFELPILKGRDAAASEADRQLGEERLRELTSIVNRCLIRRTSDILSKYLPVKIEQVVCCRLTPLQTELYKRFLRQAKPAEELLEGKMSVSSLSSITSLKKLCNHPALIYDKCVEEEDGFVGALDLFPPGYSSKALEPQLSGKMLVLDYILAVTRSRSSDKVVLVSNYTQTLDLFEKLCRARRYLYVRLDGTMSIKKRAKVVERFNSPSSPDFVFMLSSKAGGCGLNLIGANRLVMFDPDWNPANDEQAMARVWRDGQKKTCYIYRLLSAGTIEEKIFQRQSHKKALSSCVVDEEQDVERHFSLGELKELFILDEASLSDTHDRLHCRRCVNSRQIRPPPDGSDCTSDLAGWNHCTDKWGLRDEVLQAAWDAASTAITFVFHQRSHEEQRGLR

[11] = system: HEK293; test: cells; format: functional, cell-based; details: Homo sapiens
[12] = system: HEK293; test: cells; format: functional, cell-based; details: Homo sapiens; remark: listed apart in the source
[13] = system: HEK293; test: inhibition of NOD1-driven NF-kB reporter – cell-based, luminescence, uHTS, primary screen (AID 1578); format: functional; details: Homo sapiens
[14] = system: HEK293; test: cells; format: functional, cell-based; details: Homo sapiens; remark: listed apart in the source
[15] = system: HEK293; test: NOD2 signaling inhibitors in MDP-stimulated cells, cell-based, uHTS, luminescence (AID 2001); format: functional; details: Homo sapiens
[16] = molecular target: T1, Apoptotic protease-activating factor 1; format: functional
[17] = molecular target: Nucleotide-binding oligomerization domain-containing protein 2 (Homo sapiens, UniProt Q9HC29); test: inhibition of NOD2-driven NF-kB reporter – cell-based, luminescence, uHTS, HEK293 (AID 1566); format: functional
[18] = molecular target: T5, Carboxy-terminal domain RNA polymerase II polypeptide A small phosphatase 1 (Homo sapiens, UniProt Q9GZU7); test: CTDSP1 inhibitors, concentration-response, biochemical, absorbance readout, ultra-high-throughput screen actives (AID 540297); format: functional
T5 sequence (Q9GZU7 whole entry): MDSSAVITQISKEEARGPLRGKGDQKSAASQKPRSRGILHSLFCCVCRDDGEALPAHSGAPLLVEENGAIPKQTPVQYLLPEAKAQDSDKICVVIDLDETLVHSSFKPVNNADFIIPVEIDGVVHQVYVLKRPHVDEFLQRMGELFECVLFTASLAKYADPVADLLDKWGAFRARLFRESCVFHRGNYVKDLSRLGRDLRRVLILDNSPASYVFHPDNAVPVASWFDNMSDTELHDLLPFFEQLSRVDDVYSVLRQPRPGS

[19] = inhibition of ARNT PAS-B/TACC3 complex formation – biochemical, AlphaScreen, cherry-picked samples, confirmation (AID 651703); format: functional, Homo sapiens;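 note: His-tagged ARNT PAS-B domain paired with GST-TACC3 E629A dimer coactivator fragment; potency of inhibitors that break up the complex and lower AlphaScreen signal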
[20] = molecular target: Ras and Rab interactor 1/Tyrosine-protein kinase ABL1 (Homo sapiens, UniProt P00519+Q13671); format: functional;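 note: biochemical TR-FRET dose-response test measuring inhibition of binding between Rin1 and Abl proteins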
[21] = Luminescence Cell-Based Dose Retest to Confirm Inhibitors of Cancer Stem Cells. [Related pubchem assays (depositor defined):AID2717, AID2721]; format: functional; details: Homo sapiens
[22] = non-specific 3'UTR reporter inhibition in Clone20-Shn3RL – cell-based, Renilla luciferase, cherry-picked, counter-screen for Shn3 inhibitor project, dose response (AID 624133); format: functional
[23] = system: INS1; test: INS-1E survival protection against cytokine death – cell-based, luminescence, retest, dose response (AID 449756); format: functional; details: Rattus norvegicus;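 note: cell death triggered by IL-1 beta plus TNF-alpha plus IFN-gamma mixture; protective hits raise ATP signal compared with cytokine alone wells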
[24] = molecular target: T6, Ubiquitin-conjugating enzyme E2 N (Homo sapiens, UniProt P61088); format: functional
T6 sequence (P61088 whole entry): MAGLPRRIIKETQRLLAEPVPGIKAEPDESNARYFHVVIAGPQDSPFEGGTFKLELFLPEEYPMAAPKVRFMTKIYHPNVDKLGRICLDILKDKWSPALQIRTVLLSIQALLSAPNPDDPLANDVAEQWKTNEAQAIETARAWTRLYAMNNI

[25] = molecular target: T6, Ubiquitin-conjugating enzyme E2 N; format: functional; remark: listed apart in the source
[26] = loss of viability in HepG2 cells – cell-based, CellTiter-Glo, cherry-picked, cytotoxicity control for Shn3 inhibitor project, dose response (AID 624134); format: functional
[27] = molecular target: T7, Bcl-2-related protein A1 (Mus musculus, UniProt Q07440); format: functional;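 note: confirmatory dose–response counterscreen on Bfl-1, used to check hits from a UBC13 polyubiquitin inhibitor campaign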
T7 sequence (Q07440 whole entry): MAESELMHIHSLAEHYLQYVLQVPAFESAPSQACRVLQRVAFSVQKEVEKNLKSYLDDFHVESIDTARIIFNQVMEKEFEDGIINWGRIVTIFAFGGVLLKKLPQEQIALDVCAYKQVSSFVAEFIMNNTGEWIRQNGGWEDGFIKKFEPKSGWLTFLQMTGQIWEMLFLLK

[28] = reduction of Shn3 3'UTR-driven luciferase in osteoblasts – cell-based, Clone20 osteoblasts, firefly luciferase, cherry-picked, dose response (AID 624132); format: functional;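 note: firefly luciferase luminescence from reporter carrying the Shn3 3'UTR in osteoblasts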
[29] = molecular target: T8, Low molecular weight phosphotyrosine protein phosphatase (Homo sapiens, UniProt P24666); format: functional; details: read-out: IC50_Mean
T8 sequence (P24666 whole entry): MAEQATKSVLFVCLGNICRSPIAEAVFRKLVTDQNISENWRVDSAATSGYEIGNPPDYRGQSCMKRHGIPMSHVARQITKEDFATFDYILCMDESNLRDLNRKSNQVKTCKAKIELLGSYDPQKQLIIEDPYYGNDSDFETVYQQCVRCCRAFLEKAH

[30] = molecular target: T8, Low molecular weight phosphotyrosine protein phosphatase; format: functional; details: read-out: IC50_Mean; remark: listed apart in the source
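Throughout, for EC50 Mean: caspase-3 cleavage of fluorogenic Rh110 DEVD substrate downstream of apoptosome activation.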

T3 sequence (P63165 whole entry): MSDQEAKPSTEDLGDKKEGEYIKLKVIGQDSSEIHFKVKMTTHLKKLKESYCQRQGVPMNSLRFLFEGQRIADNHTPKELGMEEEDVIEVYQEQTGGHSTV
Sequence of Hepatocyte nuclear factor 4-alpha (P41235 whole entry, the tested form may be a part): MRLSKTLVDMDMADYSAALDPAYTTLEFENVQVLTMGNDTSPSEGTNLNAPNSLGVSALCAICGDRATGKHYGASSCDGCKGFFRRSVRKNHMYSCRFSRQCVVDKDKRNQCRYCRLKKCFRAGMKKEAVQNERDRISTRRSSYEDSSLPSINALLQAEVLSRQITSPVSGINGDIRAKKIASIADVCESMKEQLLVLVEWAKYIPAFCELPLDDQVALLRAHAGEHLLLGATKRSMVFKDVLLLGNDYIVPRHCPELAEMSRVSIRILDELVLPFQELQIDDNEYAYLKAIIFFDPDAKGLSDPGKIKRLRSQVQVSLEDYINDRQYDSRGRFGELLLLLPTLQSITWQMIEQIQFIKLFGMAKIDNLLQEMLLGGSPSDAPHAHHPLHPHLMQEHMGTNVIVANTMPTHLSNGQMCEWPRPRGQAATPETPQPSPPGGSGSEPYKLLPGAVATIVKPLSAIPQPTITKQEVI
Sequence of Ras and Rab interactor 1/Tyrosine-protein kinase ABL1 (P00519 whole entry): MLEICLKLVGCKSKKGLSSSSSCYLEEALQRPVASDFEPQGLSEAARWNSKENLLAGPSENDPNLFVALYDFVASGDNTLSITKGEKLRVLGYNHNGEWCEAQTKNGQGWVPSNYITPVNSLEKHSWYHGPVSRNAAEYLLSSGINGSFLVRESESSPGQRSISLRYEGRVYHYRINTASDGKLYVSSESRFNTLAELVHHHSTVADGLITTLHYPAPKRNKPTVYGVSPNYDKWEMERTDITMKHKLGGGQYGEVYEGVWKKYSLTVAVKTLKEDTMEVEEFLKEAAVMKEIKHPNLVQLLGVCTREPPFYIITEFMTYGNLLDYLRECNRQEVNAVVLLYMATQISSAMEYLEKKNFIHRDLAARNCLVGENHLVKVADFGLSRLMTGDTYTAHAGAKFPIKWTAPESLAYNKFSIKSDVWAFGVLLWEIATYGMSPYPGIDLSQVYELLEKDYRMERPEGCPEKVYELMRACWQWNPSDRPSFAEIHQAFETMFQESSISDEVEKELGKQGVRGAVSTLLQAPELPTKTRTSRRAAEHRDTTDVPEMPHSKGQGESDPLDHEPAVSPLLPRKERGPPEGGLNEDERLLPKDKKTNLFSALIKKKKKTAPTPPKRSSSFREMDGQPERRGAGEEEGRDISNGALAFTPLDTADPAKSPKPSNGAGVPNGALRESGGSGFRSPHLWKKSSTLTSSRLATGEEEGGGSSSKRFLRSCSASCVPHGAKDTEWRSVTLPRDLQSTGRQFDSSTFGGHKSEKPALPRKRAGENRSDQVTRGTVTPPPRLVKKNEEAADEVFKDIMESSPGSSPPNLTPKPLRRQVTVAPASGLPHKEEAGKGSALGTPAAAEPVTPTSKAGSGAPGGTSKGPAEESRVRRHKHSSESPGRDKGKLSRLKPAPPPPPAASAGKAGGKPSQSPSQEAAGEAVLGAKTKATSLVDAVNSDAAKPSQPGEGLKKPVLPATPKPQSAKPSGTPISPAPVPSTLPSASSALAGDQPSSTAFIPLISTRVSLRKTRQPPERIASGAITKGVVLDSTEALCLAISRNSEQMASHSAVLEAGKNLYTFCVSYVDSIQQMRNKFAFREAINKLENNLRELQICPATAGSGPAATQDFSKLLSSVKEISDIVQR
Sequence of Ras and Rab interactor 1/Tyrosine-protein kinase ABL1 (Q13671 whole entry): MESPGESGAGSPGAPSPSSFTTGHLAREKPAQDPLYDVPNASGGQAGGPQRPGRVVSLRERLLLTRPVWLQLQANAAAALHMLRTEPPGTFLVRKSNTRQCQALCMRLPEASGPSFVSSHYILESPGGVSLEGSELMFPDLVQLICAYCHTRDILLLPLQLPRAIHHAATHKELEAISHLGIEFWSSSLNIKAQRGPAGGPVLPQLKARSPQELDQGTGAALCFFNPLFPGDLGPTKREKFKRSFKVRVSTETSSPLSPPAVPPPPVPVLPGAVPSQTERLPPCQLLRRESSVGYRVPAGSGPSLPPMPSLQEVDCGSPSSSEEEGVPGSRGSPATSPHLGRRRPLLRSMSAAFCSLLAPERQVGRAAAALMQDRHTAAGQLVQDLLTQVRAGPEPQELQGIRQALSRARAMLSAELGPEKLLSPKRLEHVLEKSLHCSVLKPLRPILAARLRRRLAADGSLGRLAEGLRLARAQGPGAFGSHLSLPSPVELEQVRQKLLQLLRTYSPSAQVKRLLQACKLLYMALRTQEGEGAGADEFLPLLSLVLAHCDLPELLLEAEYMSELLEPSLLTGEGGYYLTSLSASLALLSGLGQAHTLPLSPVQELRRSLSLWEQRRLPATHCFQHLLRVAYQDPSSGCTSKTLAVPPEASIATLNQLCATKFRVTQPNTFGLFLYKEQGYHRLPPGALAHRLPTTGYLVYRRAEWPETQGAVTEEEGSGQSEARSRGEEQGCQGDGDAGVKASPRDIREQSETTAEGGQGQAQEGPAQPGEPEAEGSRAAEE
Sequence of Nucleotide-binding oligomerization domain-containing protein 2 (Q9HC29 whole entry, the tested form may be a part): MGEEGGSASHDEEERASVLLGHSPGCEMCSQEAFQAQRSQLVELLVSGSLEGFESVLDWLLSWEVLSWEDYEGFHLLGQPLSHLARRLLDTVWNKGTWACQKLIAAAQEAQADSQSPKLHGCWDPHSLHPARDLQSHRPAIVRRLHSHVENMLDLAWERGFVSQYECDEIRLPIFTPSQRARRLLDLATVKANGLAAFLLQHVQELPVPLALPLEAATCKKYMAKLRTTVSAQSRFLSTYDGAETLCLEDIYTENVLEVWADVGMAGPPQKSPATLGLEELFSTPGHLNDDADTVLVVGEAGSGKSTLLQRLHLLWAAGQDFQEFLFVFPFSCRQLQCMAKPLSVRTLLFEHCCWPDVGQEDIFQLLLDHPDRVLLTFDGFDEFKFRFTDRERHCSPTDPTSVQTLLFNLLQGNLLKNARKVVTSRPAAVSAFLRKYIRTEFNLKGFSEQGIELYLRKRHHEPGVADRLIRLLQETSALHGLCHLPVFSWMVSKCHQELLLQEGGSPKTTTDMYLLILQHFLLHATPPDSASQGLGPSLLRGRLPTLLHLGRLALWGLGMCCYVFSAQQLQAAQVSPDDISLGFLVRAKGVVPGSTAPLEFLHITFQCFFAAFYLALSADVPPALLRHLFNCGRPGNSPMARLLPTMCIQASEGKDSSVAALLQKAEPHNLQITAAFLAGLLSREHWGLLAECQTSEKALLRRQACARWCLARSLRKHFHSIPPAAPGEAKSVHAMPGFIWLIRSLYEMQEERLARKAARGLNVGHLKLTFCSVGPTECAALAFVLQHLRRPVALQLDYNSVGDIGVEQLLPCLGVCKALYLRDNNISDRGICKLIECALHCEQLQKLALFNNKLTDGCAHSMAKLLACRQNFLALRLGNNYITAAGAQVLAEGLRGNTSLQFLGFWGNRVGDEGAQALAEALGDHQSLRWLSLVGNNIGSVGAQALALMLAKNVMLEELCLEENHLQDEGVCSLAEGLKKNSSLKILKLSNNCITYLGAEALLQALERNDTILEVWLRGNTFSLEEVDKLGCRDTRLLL

- EC50 [1]: > 100 µM (inactive)
Structure (SMILES): COc1ccc(C2=NOC3(CC(=O)N(c4ccc(C)cc4)C3=O)C2)cc1 (configuration not stated)

Structure (SMILES): COc1ccc(CNc2nn3c(-c4cccc(C(=O)N(C)C)c4)cnc3s2)cc1
- IC50 [2]: 42.1 µM (inactive)
- IC50 [3]: 18 µM (inactive)

Structure (SMILES): CC1=CC(C)(C)Nc2ccc(OC(=O)CN3C(=O)C4CCCCC4C3=O)cc21 (configuration not stated)
- EC50 [4]: 7.23 µM (active)
- IC50 [5]: 4.53 µM (active)
- EC50 [6]: 4.74 µM (active)

Structure (SMILES): CC(=O)Nc1ccc(NC(=O)c2cc(-c3ccc(C)cc3O)n[nH]2)cc1
- IC50 [7]: > 66.6 µM (inactive)
- IC50 [8]: 13.3 µM (active)

Structure (SMILES): COc1ccc(C(=O)Nc2cc(C)c(NC(=O)c3ccccc3OC)cn2)cc1
- IC50 [7]: > 66.6 µM (inactive)
- AC50 [9]: 169 µM (active)
- AC50 [10]: 100 µM (inactive)
- IC50 [8]: 1.48 µM (active)

Structure (SMILES): CCCCc1c(C)c(C#N)c2nc3ccccc3n2c1O
- IC50 [11]: 13.1 µM (active)
- IC50 [12]: > 20 µM (inactive)
- EC50 [13]: 4.1 µM (active)
- IC50 [14]: > 20 µM (inactive)
- IC50 [15]: 10.8 µM (inactive)
- IC50 [16]: 7.79 µM (active)
- EC50 [17]: 8.9 µM (active)

- IC50 [18]: 6.25 µM (active)
- IC50 [5]: 12.9 µM (inactive)
Structure (SMILES): CCCCn1c(SCC(=O)NCc2ccco2)nnc1-c1ccoc1C

- EC50 [1]: > 100 µM (inactive)
Structure (SMILES): CC(CNc1ccc(Oc2ccccc2)cc1)C(=O)O (configuration not stated)

Structure (SMILES): O=C(NCCCn1ccnc1)c1cc2cc([N+](=O)[O-])ccc2oc1=O
- AC50 [19]: 131 µM (active)

- IC50 [20]: 3.59 µM (active)
Structure (SMILES): CCOC(=O)CCCCCC(=O)Nc1ccc2c(c1)C(=O)N([C@H](C)CO)C[C@@H](C)[C@@H](CN(C)C(=O)CCC(F)(F)F)OCCCC[C@H](C)O2

Structure (SMILES): NC1=NC[C@@H](CC2CCCCC2)N1CCc1cc(C(F)(F)F)cc(C(F)(F)F)c1
- AC50 [21]: 3.19 µM (active)
- AC50 [22]: 24.8 µM (active)
- AC50 [23]: 7.06 µM (active)
- IC50 [24]: 11.5 µM (active)
- IC50 [25]: 19.6 µM (active)
- AC50 [26]: 14.7 µM (active)
- IC50 [16]: 60.4 µM (active)
- IC50 [27]: > 20 µM (inactive)
- AC50 [28]: 9.92 µM (active)

- IC50 [20]: 7.81 µM (active)
Structure (SMILES): CCOC(=O)N1CCN(C(=O)Nc2ccc(NC(=O)N3CCN(C(=O)OCC)CC3)cc2)CC1

- IC50 [18]: 1.57 µM (active)
- IC50 [29]: 31.5 µM (inactive)
- IC50 [30]: 35 µM (inactive)
Structure (SMILES): COc1ccc(NC(=O)/C(C#N)=C\c2ccc(OCc3ccc(C(=O)O)cc3)c(OC)c2)cc1
